Experimental data: patent US20100093726A1 (Giuseppe CAMPIANI, priority 2007, published 2010)
Values belong to the molecule of their own block, whether it stands above or below them.

Tests used:
[1] = test system: KB cell (human carcinoma of the nasopharynx cell line); experiment: Cytotoxicity on KB cells; format: cell-based
[2] = test system: P. Chabaudi AS; experiment: In vivo activity against P. chabaudi; conditions: per os; for P. Chabaudi AS (% inhibition at 50 mg/Kg): single dose of 50 mg/Kg
[3] = test system: P. Berghei ANKA; experiment: In vivo activity against P. berghei; conditions: doses up to 100 mg/Kg
Procedure: The experiment was performed at a single dose of 50 mg/Kg. ED50 was determined for 9a in P. berghei ANKA. All compounds were adminstered per os.

[4] = test system: Candida albicans MGMI 1; experiment: Antifungal susceptibility (CLSI broth dilution), Candida albicans; format: cell-based; conditions: CLSI protocol, clinical isolate
Excerpt: (§1) (1) National Committee for Clinical Laboratory Standards. (2002). Reference method for broth dilution antifungal susceptibility testing of yeasts—Second Edition: Approved Standard, M27-A2. NCCLS, Wayne, Pa.; and
(§2) (2) National Committee for Clinical Laboratory Standards. Reference method for broth dilution antifungal susceptibility testing of filamentous fungi: Approved Standard, M38-A. 2002; NCCLS, Wayne, Pa.

[5] = test system: Candida parapsilosis ATCC ® 22019; experiment: Antifungal susceptibility (CLSI broth dilution), Candida parapsilosis; format: cell-based; conditions: CLSI protocol, quality control strain
Excerpt: as §1, §2

[6] = test system: Cryptococcus neoformans MGMI 3; experiment: Antifungal susceptibility (CLSI broth dilution), Cryptococcus neoformans; format: cell-based; conditions: CLSI protocol, clinical isolate
Excerpt: as §1, §2

[7] = test system: Aspergillus flavus ATCC ® 204304; experiment: Antifungal susceptibility (CLSI broth dilution), Aspergillus flavus; format: cell-based; conditions: CLSI protocol, reference strain
Excerpt: as §1, §2

[8] = test system: Aspergillus fumigatus MGMI 4; experiment: Antifungal susceptibility (CLSI broth dilution), Aspergillus fumigatus MGMI 4; format: cell-based; conditions: CLSI protocol, clinical isolate
Excerpt: as §1, §2

[9] = test system: Aspergillus fumigatus MGMI 5; experiment: Antifungal susceptibility (CLSI broth dilution), Aspergillus fumigatus MGMI 5 (ITRA resistant); format: cell-based; conditions: for antifungal susceptibility value (MIC), Aspergillus fumigatus MGMI 5: CLSI protocol, clinical isolate, itraconazole resistant
Excerpt: as §1, §2

[10] = test system: β-hematin formation (hemin); experiment: BHIA (β-hematin inhibitory activity) assay; format: biochemical; conditions: hemin in dimethyl sulfoxide-acetate buffer at pH 5.0, 37° C., 18 h
[11] = test system: P. falciparum D10; experiment: In vitro antiplasmodial activity, P. falciparum D10 (CQ-S clone); format: cell-based; conditions: Plasmodium falciparum, D10, read-out: IC50 (nM) D10
Procedure: (§3) Some of the synthesized compounds were tested in vitro against two different strains of P. falciparum, namely 3D7, NF54 and D10 (CQ-S strain) and K1 and W2 (CQ-R strain).

[12] = test system: P. falciparum K1; experiment: microbe, parasite or virus in culture; format: cell-based; conditions: Plasmodium falciparum, K1, read-out: IC50 (nM) K1
Procedure: as §3

[13] = test system: P. falciparum W2; experiment: microbe, parasite or virus in culture; format: cell-based; conditions: Plasmodium falciparum, W2, read-out: IC50 (nM) W2
Procedure: as §3

[14] = test system: P. falciparum 3D7; experiment: In vitro antiplasmodial activity, P. falciparum 3D7 (CQ-S clone); format: cell-based; conditions: Plasmodium falciparum, 3D7, read-out: IC50 (nM) 3D7
Procedure: as §3

[15] = test system: P. falciparum NF54; experiment: In vitro antiplasmodial activity, P. falciparum NF54 (CQ-S clone); format: cell-based; conditions: Plasmodium falciparum, NF54, read-out: IC50 (nM) NF54
Procedure: as §3

[16] = Cytotoxicity on NSO cells; format: cell-based; conditions: mouse, NSO cells (plasmocytoma murine cell line); read-out: TC50 (μM) NSO cells
[17] = Cytotoxicity on Daudi cells; format: cell-based; conditions: human, Daudi cells (human lymphoblastoid cell line); read-out: TC50 (μM) Daudi cells
[18] = Cytotoxicity on normal human lymphocytes; format: cell-based; conditions: normal human lymphocytes PHA-stimulated; read-out: TC50 (μM) Normal human lymphocytes
[19] = test system: Candida glabrata MGMI 2; experiment: Antifungal susceptibility (CLSI broth dilution), Candida glabrata; format: cell-based; conditions: CLSI protocol, clinical isolate
Excerpt: as §1, §2

[20] = test system: Candida krusei ATCC ® 6258; experiment: Antifungal susceptibility (CLSI broth dilution), Candida krusei; format: cell-based; conditions: CLSI protocol, quality control strain
Excerpt: as §1, §2

[21] = test system: yeast and filamentous fungi; experiment: Antifungal activity, overall statement; format: cell-based; conditions: yeast and filamentous fungi of Table 4

SMILES: Clc1ccccc1C(c1ccccc1)(c1ccccc1)n1ccnc1 [CLT, clotrimazole, reference compound]
TC50 (μM) KB cell [1]: 88.1 µM | P. Chabaudi AS (% inhibition at 50 mg/Kg) [2]: 6.0% | activity against P. berghei in vivo [3]: not active | antifungal susceptibility value (MIC), Candida albicans MGMI 1 [4]: 0.03 µg/mL | antifungal susceptibility value (MIC), Candida parapsilosis ATCC 22019 [5]: 2 µg/mL | antifungal susceptibility value (MIC), Cryptococcus neoformans MGMI 3 [6]: 2 µg/mL | antifungal susceptibility value (MIC), Aspergillus flavus ATCC 204304 [7]: 4 µg/mL | antifungal susceptibility value (MIC), Aspergillus fumigatus MGMI 4 [8]: 4 µg/mL | antifungal susceptibility value (MIC), Aspergillus fumigatus MGMI 5 [9]: 4 µg/mL

SMILES: CCN(CC)Cc1cc(Nc2ccnc3cc(Cl)ccc23)ccc1O [Amodiaquine]
β-hematin inhibitory activity IC50 [10]: 0.79 ± 0.01 Molar equivalents of compound relative to hemin

SMILES: Clc1ccc(C(Nc2ccnc3cc(Cl)ccc23)c2ccc(CN3CCCC3)cc2)cc1 (racemic) [Compound 9e]
IC50 [11]: 45.8 nM | IC50 [12]: 9 nM | IC50 [13]: 72.1 nM | IC50 [14]: 3.7 nM | IC50 [15]: 15 nM | TC50 (μM) KB cell [1]: 19.61 µM | CC50 [16]: 8.65 µM | CC50 [17]: 8.65 µM | CC50 [18]: 17.3 µM | P. Chabaudi AS (% inhibition at 50 mg/Kg) [2]: 99.5% | antifungal susceptibility value (MIC), Candida albicans MGMI 1 [4]: >32 | antifungal susceptibility value (MIC), Candida glabrata MGMI 2 [19]: >32 | antifungal susceptibility value (MIC), Candida krusei ATCC 6258 [20]: >32 | antifungal susceptibility value (MIC), Candida parapsilosis ATCC 22019 [5]: 16 | antifungal susceptibility value (MIC), Cryptococcus neoformans MGMI 3 [6]: 16 | antifungal susceptibility value (MIC), Aspergillus flavus ATCC 204304 [7]: >32 | antifungal susceptibility value (MIC), Aspergillus fumigatus MGMI 4 [8]: >32 | antifungal susceptibility value (MIC), Aspergillus fumigatus MGMI 5 [9]: >32 | anti-fungal activity (in words) [21]: lack of anti-fungal activity

SMILES: Clc1cccc(C(Nc2ccnc3cc(Cl)ccc23)c2ccc(CN3CCOCC3)cc2)c1 (racemic) [Compound 9b]
IC50 [11]: 142 nM | IC50 [12]: 259 nM | IC50 [13]: 220 nM | IC50 [15]: 155 nM | CC50 [16]: 44.7 µM | CC50 [17]: 43.9 µM | CC50 [18]: 40.8 µM

SMILES: FC(F)(F)c1ccc2c(NC(c3cccc(Cl)c3)c3ccc(CN4CCOCC4)c(Cl)c3)ccnc2c1 (racemic) [Compound 9j]
IC50 [12]: 375 nM | IC50 [15]: 163 nM

SMILES: FC(F)(F)c1ccc2c(NC(c3ccc(Cl)cc3)c3ccc(CN4CCCC4)cc3)ccnc2c1 (racemic) [Compound 9k]
IC50 [11]: 61.5 nM | IC50 [12]: 30 nM | IC50 [13]: 90.5 nM | IC50 [14]: 0.2 nM | IC50 [15]: 20 nM | TC50 (μM) KB cell [1]: 5.49 µM | CC50 [16]: 12.1 µM | CC50 [17]: 14.1 µM | CC50 [18]: 24.2 µM | P. Chabaudi AS (% inhibition at 50 mg/Kg) [2]: 99.6% | antifungal susceptibility value (MIC), Candida albicans MGMI 1 [4]: 16 | antifungal susceptibility value (MIC), Candida glabrata MGMI 2 [19]: >32 | antifungal susceptibility value (MIC), Candida krusei ATCC 6258 [20]: >32 | antifungal susceptibility value (MIC), Candida parapsilosis ATCC 22019 [5]: 16 | antifungal susceptibility value (MIC), Cryptococcus neoformans MGMI 3 [6]: 16 | antifungal susceptibility value (MIC), Aspergillus flavus ATCC 204304 [7]: >32 | antifungal susceptibility value (MIC), Aspergillus fumigatus MGMI 4 [8]: >32 | antifungal susceptibility value (MIC), Aspergillus fumigatus MGMI 5 [9]: >32 | anti-fungal activity (in words) [21]: lack of anti-fungal activity

SMILES: CCC(C)n1ncn(-c2ccc(N3CCN(c4ccc(OCC5COC(Cn6cncn6)(c6ccc(Cl)cc6Cl)O5)cc4)CC3)cc2)c1=O (centres unmarked) [ITRA, itraconazole, reference compound]
antifungal susceptibility value (MIC), Candida albicans MGMI 1 [4]: 0.25 µg/mL | antifungal susceptibility value (MIC), Candida glabrata MGMI 2 [19]: 32 µg/mL | antifungal susceptibility value (MIC), Candida krusei ATCC 6258 [20]: 0.25 µg/mL | antifungal susceptibility value (MIC), Candida parapsilosis ATCC 22019 [5]: 0.125 µg/mL | antifungal susceptibility value (MIC), Cryptococcus neoformans MGMI 3 [6]: 0.25 µg/mL | antifungal susceptibility value (MIC), Aspergillus flavus ATCC 204304 [7]: 0.06 µg/mL | antifungal susceptibility value (MIC), Aspergillus fumigatus MGMI 4 [8]: 0.06 µg/mL | MIC ([9]; Aspergillus fumigatus, MGMI5, strain description in text, itraconazole resistant isolate): > 16 µg/mL | antifungal susceptibility value (MIC), Aspergillus fumigatus MGMI 5 [9]: > 32 µg/mL

IC50 [11]: 22 nM | IC50 [12]: 260 nM | IC50 [13]: 280 nM | IC50 [14]: 10 nM | IC50 [15]: 7 nM
SMILES: CCN(CC)CCCC(C)Nc1ccnc2cc(Cl)ccc12 (centres unmarked) [CQ, chloroquine, reference compound]
TC50 (μM) KB cell [1]: 207.0 µM | P. Chabaudi AS (% inhibition) ([2]; 10 mg/Kg): 100 (10 mg/Kg) % | β-hematin inhibitory activity IC50 [10]: 0.91 ± 0.23 Molar equivalents of compound relative to hemin

SMILES: Clc1ccc(C(Nc2ccnc3cc(Cl)ccc23)(c2ccccc2)c2ccc(CN3CCCC3)cc2)cc1 (racemic) [Compound 15a]
IC50 [12]: 22 nM | IC50 [14]: 3 nM | CC50 [16]: 14.9 µM | CC50 [17]: 16.7 µM | CC50 [18]: 18.6 µM | P. Chabaudi AS (% inhibition at 50 mg/Kg) [2]: 99.9%
